Experimental data from BindingDB's records for doi:10.1074/jbc.M112.443390 (The Ohio State University, 2013).

Experiments:
Gag-Pol polyprotein [1] = target: T1, Gag-Pol polyprotein (Human immunodeficiency virus type 1 group M subtype B (isolate NY5), UniProt P12497); test: Strand Trasnfer Assay
Source text: (§1) A recently reported time-resolved fluorescence assay [J. Biol. Chem. 287: 21189-21203] was used to quantify IN 3'-processing and strand transfer activities.

[2] = target: T2, Gag-Pol polyprotein [A1275T] (Human immunodeficiency virus type 1 group M subtype B (isolate NY5), UniProt P12497, A1275T); test: Strand Trasnfer Assay
Source text: as §1

Gag-Pol polyprotein [3] = target: T1, Gag-Pol polyprotein; test: 3'-Processing Assay
Source text: as §1

[4] = target: T2, Gag-Pol polyprotein [A1275T]; test: 3'-Processing Assay
Source text: as §1

CO[C@H](C(=O)O)c1c(C)nc2ccc(Br)cc2c1-c1ccc(Cl)cc1
IC50 (Gag-Pol polyprotein [1]): 400 nM
IC50 [2]: 4610 nM
IC50 (Gag-Pol polyprotein [3]): 910 nM
IC50 [4]: 261000 nM

Cc1nc2ccc(Br)cc2c(-c2ccc(Cl)cc2)c1C(OC(C)(C)C)C(=O)O (stereo not drawn) [ALLINI-2]
IC50 (Gag-Pol polyprotein [1]): 170 nM
IC50 [2]: 890 nM
IC50 (Gag-Pol polyprotein [3]): 180 nM
IC50 [4]: 200000 nM
